Results on three compounds are retold here after patent US20050154066A1, “Antiaging composition” (KANEKA CORPORATION, priority 2004, published 2005).

The conditions of series [1]: in vitro; cited from earlier work.
The test system of series [2] is Aging-accelerated model mice (SAMP1). Briefly: Aging preventing (retarding) effect in aging-accelerated model mice, aging degree score. It counts as in vivo. The settings on record: SAMP1 female mice, about 150 to 250 mg/kg/day; for aging degree score (increase): feed containing 0.2% test substance, versus control feed, FIG. 1 / FIG. 2. An excerpt:
In evaluating such antiaging effects, for example, aging-accelerated model mice, can be used as an in vivo evaluation model. This mouse is a model mouse discovered and bred at Kyoto University, Japan, which develops the state of aging early and markedly.
Aging-accelerated model mice (SAMP1, 3-week-old females) were allowed free access to a feed (CE-2, product of CLEA Japan, Inc.) containing 0.2% reduced coenzyme Q10 (containing about 1% of oxidized coenzyme Q10) obtained in Production Example 1, and the aging degree of each mouse was quantified with time according to the aging degree score mentioned below. The dose of reduced coenzyme Q10 as estimated from the feed consumption and animal weight corresponded to about 150 to 250 mg/kg/day. A control group was given the feed alone (CE-2, product of CLEA Japan, Inc.).
The aging-accelerated model mice used were model mice discovered and bred at Kyoto University which develop the state of aging early and markedly. These mice show the state of aging quite similar to that of humans, and are useful model animals for in vivo testing for antiaging effects. The aging degree scoring system employed was the scoring system established by the Council for SAM Research. Thus, scores of 0 to 4 were given to each animal with respect to each of the following 11 items: 1: decrease in activity (searching behavior), 2: decrease in passivity (pinching escaping behavior), 3: loss of hair luster, 4: roughening of hair, 5: loss of hair, 6: skin ulcer, 7: periophthalmic lesions (blepharitis and periophthalmic erosion), 8: corneal clouding, 9: corneal ulcer, 10: cataract, 11: increased anterior or backward spinal curvature. The conditions found in a group of young mice about 3 months of age were taken as standards and given the score 0 (zero). Thus, a higher score indicates more advanced aging.
The test of Example 1 was performed in the same manner except that oxidized coenzyme Q10 was used in lieu of reduced coenzyme Q10. […]

The next series concerns rats. The settings on record: administered every day for 52 weeks at 1,200 mg/kg/day (Williams et al. 1999); cited from earlier work.

In the case of `COc1c(O)c(C)c(C/C=C(\C)CC/C=C(\C)CC/C=C(\C)CC/C=C(\C)CC/C=C(\C)CC/C=C(\C)CC/C=C(\C)CC/C=C(\C)CC/C=C(\C)CCC=C(C)C)c(O)c1OC` [reduced coenzyme Q10], the antioxidant activity entry in series [1] was “shows antioxidant activity”. The “aging degree score (increase)” value in series [2] is recorded as “distinctly prevented from increasing”.

`COC1=C(OC)C(=O)C(C/C=C(\C)CC/C=C(\C)CC/C=C(\C)CC/C=C(\C)CC/C=C(\C)CC/C=C(\C)CC/C=C(\C)CC/C=C(\C)CC/C=C(\C)CCC=C(C)C)=C(C)C1=O` [coenzyme Q10]: the toxic effect result in the series with rats is recorded as “no toxic effect”.

With `COC1=C(OC)C(=O)C(C/C=C(\C)CC/C=C(\C)CC/C=C(\C)CC/C=C(\C)CC/C=C(\C)CC/C=C(\C)CC/C=C(\C)CC/C=C(\C)CC/C=C(\C)CCC=C(C)C)=C(C)C1=O` [oxidized coenzyme Q10], the antioxidant activity entry in series [1] is “does not show antioxidant activity”. Further, the “aging degree score (increase)” value in series [2] was “suppressed to a certain extent”. The “aging preventing effect compared with reduced coenzyme Q10” value in series [2] (feed, FIG. 2 vs FIG. 1) is “weak”.
